Measurements: patent US7786297B2, “Purified form of tanaproget” (Wyeth LLC, priority 2005, dated 2010)

Test: storage stability of purified tanaproget Form I (polymorph conversion)
Assay type: physicochemical
Settings: storage of purified tanaproget Form I alone or in combination with other agents/excipients

With `Cn1c(C#N)ccc1-c1ccc2c(c1)C(C)(C)OC(=S)N2` [purified tanaproget Form I, 5-(4,4-dimethyl-2-thioxo-1,4-dihydro-2H-3,1-benzoxazin-6-yl)-1-methyl-1H-pyrrole-2-carbonitrile] as the molecule, how does the “stability / conversion to another polymorph during storage” value read?
The value was “stable and less likely to convert to another polymorph during storage”.
